{"source": "patent US20240299268A1", "about": "“A COMPOSITION FOR CARING FOR KERATIN MATERIALS” (L'OREAL, priority 2021, published 2024)", "origin": "cited, not measured here", "note": "Where two headings read alike, the source gives them in different places."}
{"compound": "COc1cc(/C=C/C(=O)O)ccc1O", "note": "[Ferulic acid, 4-Hydroxy-3-methoxycinnamic acid]", "values": [{"measurement": "time until decarboxylation (loss in stability, unpleasant odor) when contacting with water", "setting": "content of ferulic acid no less than 1 wt. %", "result": 30, "unit": "days"}, {"measurement": "time until decarboxylation (loss in stability, unpleasant odor) when contacting with water", "setting": "content of ferulic acid no less than 1.5 wt. %", "result": 15, "unit": "days"}, {"measurement": "time until decarboxylation (loss in stability, unpleasant odor) when contacting with water", "setting": "content of ferulic acid no less than 1.9 wt. %", "result": 7, "unit": "days"}]}
